# Results published in PMC12303080, “Diverse actions of 15 structurally unrelated mitochondrial uncouplers in cells and mice” (Molecular Metabolism, 2025).
# Like-named read-outs stand apart in the source and are kept apart here.
# Key:
# CHO–K1 cells [1] = assay: Seahorse XF-96 OCR dose response of 15 uncouplers (Figure 2); format: cell-based, Cricetulus griseus; details: CHO–K1; for MaxOCR: 0.32–200 μM, first 24 min post injection; for EC50: mean OCR (% basal) over first 24 min post injection, ± standard error, four-parameter fit, read-out: EC50 (increase of OCR); for MaxOCR lower than that seen with BAM15: Figure 2; for Concentration range with sustained enhanced OCR (OCR ≥ 150% basal): tested 0.32–200 μM
# Description: (§1) Stock solutions of the uncouplers and/or Rotenone/Antimycin A were diluted in Seahorse media to give the final concentration indicated in Figure 1, Figure 2, Figure 3 with 0.4% (v/v) DMSO in wells.
# CHO–K1 cells [2] = assay: OCR in the absence or presence of oligomycin (Supplementary Fig. 6); format: cell-based, Cricetulus griseus; details: 1 μM oligomycin; for Effect of oligomycin on uncoupler-stimulated OCR: uncoupler at lowest concentration yielding MaxOCR
# Description: ATP synthase is the major conduit through which protons re-enter the mitochondrial matrix. Thus, we sought to investigate whether the selected uncouplers could stimulate oxygen consumption in the presence of the ATP synthase inhibitor oligomycin.
# Supplementary Figure 6. […] At ~24 minutes, 1 μM of oligomycin or vehicle was injected, followed by the injection of the indicated uncoupler or vehicle at ~44 minutes, and 0.5 μM Rotenone / Antimycin A at ~88 minutes.
# [3] = in vivo; cited from earlier work
# rat hepatocytes = system: rat hepatocytes; design: method as in PMID 15037196, PMID 8726330; details: cited from earlier work
# [4] = Terminal plasma drug concentration by LC-MS/MS; format: in vivo; details: db/db mice, study endpoint; TIZ row: mice fed 0.2% NTZ
# Description: LC-MS/MS was performed using a Shimadzu Prominence LCMS-8030 as previously described.
# Figure 7 Plasma drug concentration and markers of tissue damage in db/db mice at study endpoint. Plasma was collected via cardiac puncture at time of euthanasia. A–E) Terminal plasma drug concentration was measured by LC-MS/MS. F–I) Terminal plasma concentration of liver function indicators (ALT, AST and GLDH) and kidney function indicator (urea). Graphs show mean ± SEM, n = 6–9 per group for plasma drug concentration measurement. Due to the limited volume of samples, not all liver and kidney function tests could be performed for all mice.
# RAW 264.7 cells = details: 0.5–50 μM
# Description: as §1
# (§2) The dashed line indicates basal respiration, defined as the mean OCR over the first 24 minutes of the assay. Error bars show SEM, n = 3 per condition from three separate experiments.
# HeLa cells = details: 0.5–50 μM
# Description: as §1, §2
# HEK-293T cells = details: HEK293T; 0.5–50 μM
# Description: as §1, §2
# CHO–K1 cells [5] = details: 0.5–50 μM, BAM15 at 5 μM, FCCP at 1 μM
# Description: as §1
# [6] = Drug exposure / pharmacokinetics after oral gavage; details: male, C57BL/6J, mouse, plasma, 10 mg/kg
# Description: Standards were prepared by spiking known concentrations (0.1, 1, 10, 100 and 1000 ng) of the uncoupler into whole blood prior to extraction. Plasma was obtained by centrifugation at 2000×g for 10 min at 4 °C. Seven microlitres (7 μL) of plasma was precipitated in 100 μL of 90% (v/v) acetonitrile and 10% (v/v) methanol. The resulting solution was vortexed for 5 s and then centrifuged at 21,130×g for 10 min at 4 °C. The supernatant was collected in auto-sampler vials for mass spectrometry.
# Plasma concentration of mitochondrial uncouplers at indicated timepoints was determined by LC-MS/MS. Error bars show SEM, n = 3 per mitochondrial uncoupler.
# [7] = system: Zucker diabetic fatty rats, Akita mice, and Otsuka Long-Evans Tokushima Fatty rats; design: method as in PMID 31092829; details: decreased HbA1c and lowered fasting blood glucose; cited from earlier work
# db/db mice = assay: Four-week treatment by admixture in chow, metabolic phenotyping; details: 4 weeks; for Body weight / weight gain vs db/db controls: 0.15% BAM15, 0.02% OPC-163493, 0.015% and 0.03% ES9, NTZ and NEN both doses; for Body weight, food intake, or metabolic tissue weights vs control: 0.25% NEN, 0.2% NTZ, 0.01% and 0.02% OPC-163493; for Blood glucose, HbA1c, glucose tolerance vs control / Overall metabolic phenotype vs db/db control (Figure 8, words): NEN both doses; for Blood glucose, HbA1c, glucose tolerance vs control: 0.01% OPC, 0.015% ES9, 0.2% NTZ; for Overall metabolic phenotype vs db/db control (Figure 8, words): OPC-163493 both doses, NTZ 0.2%; for Liver mass vs db/db control: both doses of BAM15, low dose NEN; for Daily food intake: both doses of BAM15, low dose of NEN, high dose of NTZ
# Description: Body weight and glucose tolerance of male db/+ and db/db mice was assessed at 8–9 weeks of age to obtain baseline measurements. Db/+ were used as lean metabolically healthy controls and given ad libitum access to chow diet. Db/db mice were stratified into 12 groups using R (V4.4.0).
# Mice were on treatment for a period of four weeks, during which body weight and food intake were measured daily. […] To counter this, food traps were placed beneath hoppers and leftover food in both the traps and hoppers was weighed daily. HbA1c was measured weekly. At the end of the treatment period, a glucose tolerance test was conducted, with fed and fasted bloods collected. At termination, blood was collected via cardiac puncture under isoflurane anaesthesia. Mice were euthanised by cervical dislocation and harvested tissues were flash-frozen in liquid nitrogen and stored at −80 °C.
# Mice were fasted for 6 h and then received intraperitoneal injections of 20% (w/v) dextrose at a dose of 1 g/kg lean body mass. Blood glucose (BG) was measured at the time of fasting (random-fed BG) and then again prior to the commencement of the GTT following the 6-hour daytime fast (fasted BG). […] The rate of glucose clearance was measured using the trapezoidal method for calculation of area under the curve.
# HbA1c was measured once weekly using an A1cNow + Portable HbA1c Test Kit. […] HbA1c was measured in the random-fed state.
# A glucose tolerance test was conducted at the end of the treatment period, with random fed and 6-hour fasted bloods collected. Blood was collected in heparin tubes and kept on ice prior to centrifugation at 2000×g for 10 min at 4 °C to extract plasma. Plasma insulin concentration was determined using the Crystal Chem Ultra-Sensitive Mouse Insulin ELISA kit, according to manufacturers' instructions for the high range (1–64 ng/mL) assay.
# rats [8] = system: rats; design: method as in PMID 3889119; details: cited from earlier work
# [9] = system: CDAA/c mouse model of NASH; design: method as in earlier work; details: cited from earlier work
# rats [10] = assay: NTZ toxicology study in rats (literature); format: in vivo; details: worked out from rat dose
# SARS-CoV-2 = system: SARS-CoV-2; design: method as in PMID 35237748; details: two 300 mg extended release tablets; placebo […]; cited from earlier work
# isolated rat hepatocytes = system: isolated rat hepatocytes; design: method as in PMID 12150871, PMID 31297293; details: read-out: EC50, inhibiting oxygen consumption; cited from earlier work
# [11] = Cricetulus griseus, CHO-K1, 0.4 h
molecule,measurement,setting,value
"CCCCCCCCCCCC[P+](c1ccccc1)(c1ccccc1)c1ccccc1 [C12TPP, Dodecyl-triphenylphosphonium]",Concentration giving max efficacy / MaxOCR,CHO–K1 cells [1],3.16 µM
same,MaxOCR,CHO–K1 cells [1],~178 % of basal
same,OCR at higher doses,CHO–K1 cells [1]; doses above 3.16 μM,~18 % of baseline
same,EC50,"CHO–K1 cells [1]; Cricetulus griseus, 0.4 h",1020 ± 980 nM
same,Higher OCR in the presence of oligomycin,CHO–K1 cells [2]; initially,~60%
same,Effect of oligomycin on uncoupler-stimulated OCR,CHO–K1 cells [2],largely unaffected by the presence of oligomycin
"CNC(=O)c1cc(Oc2ccc(NC(=O)Nc3ccc(Cl)c(C(F)(F)F)c3)cc2)ccn1 [Sorafenib, 4-[4-({[4-chloro-3 (trifluoromethyl)phenyl]carbamoyl}amino)phenoxy]-N-methylpyridine-2-carboxamide]",Uncoupling activity,"CHO–K1 cells [1]; tested concentration range, 120-minute assay",did not have any uncoupling activity
liraglutide,Loss of lean mass,[3],up to 60 % of total weight lost
"FC(F)(F)c1nc2c(Cl)c(Cl)c(Cl)c(Cl)c2[nH]1 [TTFB, 4,5,6,7-Tetrachloro-2-trifluoromethylbenzimidazole]",MaxOCR,CHO–K1 cells [1],280 % of basal
same,Concentration inducing decline in OCR to sub-basal levels,CHO–K1 cells [1]; first 24 min,200 µM
same,EC50,CHO–K1 cells [1]; [11],520 nM
same,Effect of oligomycin on uncoupler-stimulated OCR,CHO–K1 cells [2],largely unaffected by the presence of oligomycin
semaglutide,Loss of lean mass,[3],up to 40 % of total weight lost
"COc1cc(C(=O)OCC=C(C)C)nc2c(OCC=C(C)C)cccc12 [Ppc-1, Polysphondylium pseudo-candidum-1]",OCR at 31.6 μM,CHO–K1 cells [1],~130 % basal
same,Concentration inducing decline in OCR to sub-basal levels,CHO–K1 cells [1]; after ∼40 min of treatment,over 31.6 μM
same,EC50,CHO–K1 cells [1]; [11],13500 ± 7140 nM
"CC(=O)C1=C(O)C=C2Oc3c(C(C)=O)c(O)c(C)c(O)c3[C@@]2(C)C1=O [UsAc, (+)-usnic acid]",OCR at 31.6 μM,CHO–K1 cells [1],~125 % basal
same,Concentration inducing decline in OCR to sub-basal levels,CHO–K1 cells [1]; after ∼40 min of treatment,over 31.6 μM
same,EC50,"CHO–K1 cells [1]; Cricetulus griseus, 0.4 h",430 ± 120 nM
same,Concentrations acutely toxic,rat hepatocytes,"(+)-usnic acid (UsAc) • UsAc has not been tested in mouse models of metabolic disease. Concentrations of 2–5 μM UsAc are acutely toxic to rat hepatocytes [84, 85]. • UsAc is found in the unregulated weight-loss supplement LipoKinetix [86]."
same,Effect of oligomycin on uncoupler-stimulated OCR,CHO–K1 cells [2],largely unaffected by the presence of oligomycin
"O=C(Nc1ncc([N+](=O)[O-])s1)c1ccccc1O [TIZ, tizoxanide]",Terminal plasma drug concentration vs in vitro uncoupling range,[4],lower than the concentration at which oxygen consumption rate was enhanced in vitro
"N#CC(C#N)=NNc1ccc(OC(F)(F)F)cc1 [FCCP, Carbonyl cyanide p-trifluoromethoxyphenylhydrazone]",MaxOCR,CHO–K1 cells [1],260 % of basal
same,EC50,CHO–K1 cells [1]; [11],310 nM
same,Stimulation of OCR,RAW 264.7 cells,failed to stimulate OCR above basal levels
same,Effect of oligomycin on uncoupler-stimulated OCR,CHO–K1 cells [2],largely unaffected by the presence of oligomycin
same,Stimulation of OCR,HeLa cells,failed to stimulate OCR above basal levels
same,Stimulation of OCR,HEK-293T cells,failed to stimulate OCR above basal levels
same,MaxOCR,CHO–K1 cells [5],~260 % basal
"Cc1sc(-c2ccc(C(F)(F)F)cc2)nc1-c1nn[nH]c1C#N [OPC-163493, 4-(5-methyl-2-(4-(trifluoromethyl)phenyl)thiazol-4-yl)-1H-1,2,3-triazole-5-carbonitrile]",Concentration giving max efficacy / MaxOCR,CHO–K1 cells [1],10 µM
same,MaxOCR lower than that seen with BAM15,CHO–K1 cells [1],~22%
same,EC50,CHO–K1 cells [1],1000 nM
same,EC50,CHO–K1 cells [1]; [11],1010 ± 1200 nM
same,Cmax,[6],30.9 µM
same,Effect of oligomycin on uncoupler-stimulated OCR,CHO–K1 cells [2],largely unaffected by the presence of oligomycin
same,Doses with significant anti-diabetic effects (as low as),[7],≥ 2 mg/kg/day
same,Body weight / weight gain vs db/db controls,db/db mice,non-significant trend for lower body weight
same,"Body weight, food intake, or metabolic tissue weights vs control",db/db mice,not significantly different
same,"Blood glucose, HbA1c, glucose tolerance vs control",db/db mice,did not have significantly lower random-fed or 6-hour fasted blood glucose
same,"Overall metabolic phenotype vs db/db control (Figure 8, words)",db/db mice,No statistically significant changes
"O=C(Nc1ccc([N+](=O)[O-])cc1Cl)c1cc(Cl)ccc1O [NEN, Niclosamide ethanolamine]",MaxOCR lower than that seen with BAM15,CHO–K1 cells [1],~25%
same,Concentration range with sustained enhanced OCR (OCR ≥ 150% basal),CHO–K1 cells [1],0.32 µM
same,EC50,CHO–K1 cells [1]; [11],90 nM
same,Effect of oligomycin on uncoupler-stimulated OCR,CHO–K1 cells [2],largely unaffected by the presence of oligomycin
same,Body weight / weight gain vs db/db controls,db/db mice,little impact on body weight
same,"Body weight, food intake, or metabolic tissue weights vs control",db/db mice,not significantly different
same,"Blood glucose, HbA1c, glucose tolerance vs control",db/db mice,did not have significantly lower random-fed or 6-hour fasted blood glucose
same,"Overall metabolic phenotype vs db/db control (Figure 8, words)",db/db mice,no significant changes compared to the db/db control except lower liver weight
same,Liver mass vs db/db control,db/db mice; high dose NTZ,statistically decreased liver mass
same,Daily food intake,db/db mice,restored normal food intake
"CC(=O)Oc1ccccc1C(=O)Nc1ncc([N+](=O)[O-])s1 [NTZ, Nitazoxanide]","Doses with increased salivation and lethargy, increased liver and spleen size",rats [8],≥ 450 mg/kg/day
same,Decrease in liver fibrosis,[9]; 100 mg/kg/day,32%
same,Decrease in liver fibrosis,[9]; co-administered with Elafibranor,60%
same,EC50,CHO–K1 cells [1]; [11],2320 ± 460 nM
same,Mouse equivalent dose of the rat adverse effect dose,rats [10],~900 mg/kg/day
same,Patients progressed to severe disease,SARS-CoV-2,0.5%
same,Body weight / weight gain vs db/db controls,db/db mice,little impact on body weight
same,"Body weight, food intake, or metabolic tissue weights vs control",db/db mice,not significantly different
same,Gonadal fat less than control group,db/db mice; 0.4% in chow,26%
same,Post-treatment GTT AUC lower than control group,db/db mice; 0.4% in chow,~29%
same,"Blood glucose, HbA1c, glucose tolerance vs control",db/db mice,did not have significantly lower random-fed or 6-hour fasted blood glucose
same,"Overall metabolic phenotype vs db/db control (Figure 8, words)",db/db mice,no statistically significant phenotype
same,Liver mass vs db/db control,db/db mice; high dose NTZ,statistically decreased liver mass
same,Daily food intake,db/db mice,restored normal food intake
same,HbA1c,"db/db mice; both doses of BAM15, printed 0.3% ES9, 0.4% NTZ",lowered HbA1c levels
same,Fasting and random fed blood glucose,"db/db mice; either dose of BAM15, high dose ES9, high dose NTZ",partial efficacy
same,Increase of liver cholesterol concentration vs db/db control,db/db mice; high dose NTZ (0.4%),~1.7 fold
same,Increase of liver cholesterol concentration vs db/db control,db/db mice; low dose NTZ (0.2%),~1.5 fold
"Cc1c2ccncc2c(C)c2c1[nH]c1ccccc12 [ELL, Ellipticine]",Concentration at which OCR increased above basal levels,CHO–K1 cells [1],> 100 µM
same,MaxOCR,CHO–K1 cells [1],~122 % of basal
"O=C(Nc1cc(Cl)cc(Cl)c1)Nc1cc(Cl)cc(Cl)c1 [SR4, 1,3-bis(3,5-dichlorophenyl)urea]",Concentration at which OCR increased above basal levels,CHO–K1 cells [1],200 µM
same,MaxOCR,CHO–K1 cells [1],~117 % of basal
"CC(C)(C)c1cc(C=C(C#N)C#N)cc(C(C)(C)C)c1O [TyrA9, Tyrphostin A9]",MaxOCR lower than that seen with BAM15,CHO–K1 cells [1],~140%
same,Concentration range with sustained enhanced OCR (OCR ≥ 150% basal),CHO–K1 cells [1],≤ 100 µM
same,EC50,CHO–K1 cells [1]; [11],10 nM
same,Effect of oligomycin on uncoupler-stimulated OCR,CHO–K1 cells [2],largely unaffected by the presence of oligomycin
same,EC50,isolated rat hepatocytes,78000 nM
